Target: T1, human FXR (Homo sapiens, UniProt Q96RI1)
T1 construct: expressed in transfected cells; host or cells: HEK293 cells stably carrying a 5xGal4-response-element firefly luciferase reporter, transiently transfected with pcDNA3.1-Gal4-FXR
T1 sequence (Q96RI1 262-486 limits assumed): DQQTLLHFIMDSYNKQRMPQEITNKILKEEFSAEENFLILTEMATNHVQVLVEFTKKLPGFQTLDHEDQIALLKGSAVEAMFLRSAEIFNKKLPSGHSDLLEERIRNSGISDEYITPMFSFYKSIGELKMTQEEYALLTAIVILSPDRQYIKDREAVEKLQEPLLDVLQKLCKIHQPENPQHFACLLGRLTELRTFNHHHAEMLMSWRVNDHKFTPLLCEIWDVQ
Assay: transient human FXR/Gal4-luciferase reporter assay
Assay type: cell-based
Conditions: Gal4-hFXR LBD fusion, luciferase reporter in HEK293 cells; response relative to 8 μM GW-4064
Method: A Gal4-hFXR fusion construct reporter system was used as the primary assay to characterize compound activity. A construct including 5 copies of the Gal4 promoter response element upstream of a firefly luciferase reporter cDNA was stably expressed in HEK293 cells. This reporter cell line was maintained in Dulbecco's Modified Eagle's medium (DMEM; Gibco) supplemented with 1% penicillin-streptomycin (P/S) solution, 500 μg/mL Zeocin and 10% charcoal/dextran-treated fetal bovine serum (cs-FBS) at 37° C. in a humidified 5% CO2 atmosphere. […] The day prior to transfection, the reporter cells in culture are detached from the plate with trypsin and plated into a T75 flask at a sufficient density to achieve approximately 90% confluence the next morning. […] The mixture is further diluted with 10 mL of a solution comprised of DMEM, 10% cs-FBS, and 1% P/S immediately prior to transferring to the cells. The maintenance culture media is aspirated from the cells and the final transfection mixture is added before the cells are incubated overnight at 37° C. in a humidified 5% CO2 atmosphere. This protocol can be scaled up, and the transiently transfected cells can be cryopreserved in an assay-ready format. For compound testing, 100 nL of the compounds (serial dilutions in DMSO) are dispensed with an Echo acoustic dispenser (Labcyte) into the wells of a Corning/Costar clear bottom 384-well white plate. The transfected cells are harvested, counted, and diluted such that 10-25,000 cells in 25 μL are plated into each well of the 384-well compound assay plate. The compound-treated cells are incubated overnight at 37° C. in a humidified 5% CO2 atmosphere. The next morning 25 μL of Steady-Glo (Promega) are added to each well of the plate, the mixture is incubated for 15 min. with shaking, and luminescence is measured on an Envision (Perkin Elmer) plate reader.

SMILES | EC50 [nM]
CCc1noc(-c2cccc(N(CC34CCC(c5nc(C)no5)(CC3)CC4)C(=O)C3CCCCC3)c2)n1 [Example 3] | 158
CCc1noc(-c2cccc(N(CC34CCC(c5nc(C6CC6)no5)(CC3)CC4)C(=O)C3CCC(F)(F)CC3)c2)n1 [Example 5, N-((4-(3-cyclopropyl-1,2,4-oxadiazol-5-yl)bicyclo[2.2.2]octan-1-yl)methyl)-N-(3-(3-ethyl-1,2,4-oxadiazol-5-yl)phenyl)-4,4-difluorocyclohexane-1-carboxamide] | 799
COc1ncc(-c2cccc(N(CC34CCC(c5nc(C6CC6)no5)(CC3)CC4)C(=O)C3CCCCC3)c2)o1 [Example 7, N-((4-(3-cyclopropyl-1,2,4-oxadiazol-5-yl)bicyclo[2.2.2]octan-1-yl)methyl)-N-(3-(2-methoxyoxazol-5-yl)phenyl)cyclohexanecarboxamide] | 51
CCOc1ncc(-c2cccc(N(CC34CCC(c5nc(C6CC6)no5)(CC3)CC4)C(=O)C3CCCCC3)c2)o1 [Example 8, N-((4-(3-cyclopropyl-1,2,4-oxadiazol-5-yl)bicyclo[2.2.2]octan-1-yl)methyl)-N-(3-(2-ethoxyoxazol-5-yl)phenyl)cyclohexanecarboxamide] | 19
CCOc1ncc(-c2cccc(N(CC34CCC(c5nc(C)no5)(CC3)CC4)C(=O)C3CCCCC3)c2)o1 [Example 10, N-(3-(2-ethoxyoxazol-5-yl)phenyl)-N-((4-(3-methyl-1,2,4-oxadiazol-5-yl)bicyclo[2.2.2]octan-1-yl)methyl)cyclohexanecarboxamide] | 71
COc1cc(-c2cccc(N(CC34CCC(c5nc(C)no5)(CC3)CC4)C(=O)C3CCCCC3)c2)no1 [Example 11, N-(3-(5-methoxyisoxazol-3-yl)phenyl)-N-((4-(3-methyl-1,2,4-oxadiazol-5-yl)bicyclo[2.2.2]octan-1-yl)methyl)cyclohexanecarboxamide] | 660
O=C(C1CCCCC1)N(CC12CCC(c3nc(C4CC4)no3)(CC1)CC2)c1cccc(-c2nc(C3CC3)no2)c1 [Example 13, N-((4-(3-cyclopropyl-1,2,4-oxadiazol-5-yl)bicyclo[2.2.2]octan-1-yl)methyl)-N-(3-(3-cyclopropyl-1,2,4-oxadiazol-5-yl)phenyl)cyclohexanecarboxamide] | 82
CCOC(=O)c1coc(-c2cccc(N(CC34CCC(c5nc(C)no5)(CC3)CC4)C(=O)C3CCCCC3)c2)n1 [Example 19, Ethyl 2-(3-(N-((4-(3-methyl-1,2,4-oxadiazol-5-yl)bicyclo[2.2.2]octan-1-yl)methyl)cyclohexanecarboxamido)phenyl)oxazole-4-carboxylate] | 1560
O=C(C1CCCCC1)N(CC12CCC(c3nc(C4CC4)no3)(CC1)CC2)c1cccc(-c2cnc(C3CC3)o2)c1 [Example 22, N-((4-(3-cyclopropyl-1,2,4-oxadiazol-5-yl)bicyclo[2.2.2]octan-1-yl)methyl)-N-(3-(2-cyclopropyloxazol-5-yl)phenyl)cyclohexanecarboxamide] | 37
CN1CCC(C(=O)N(CC23CCC(c4nc(C5CC5)no4)(CC2)CC3)c2cccc(-c3cnc(C4CC4)o3)c2)CC1 [Example 24, N-((4-(3-cyclopropyl-1,2,4-oxadiazol-5-yl)bicyclo[2.2.2]octan-1-yl)methyl)-N-(3-(2-cyclopropyloxazol-5-yl)phenyl)-1-methylpiperidine-4-carboxamide] | 4800

The remaining lines, values ahead:

EC50 [nM] | SMILES
263 | CCOc1ccc(-c2cc(N(CC34CCC(c5noc(C(C)(F)F)n5)(CC3)CC4)C(=O)C3CCC(O)(C(F)(F)F)CC3)ccc2F)cc1 (single isomer, unassigned) [Example 165, N-((4-(5-(1,1-difluoroethyl)-1,2,4-oxadiazol-3-yl)bicyclo[2.2.2]octan-1-yl)methyl)-N-(4′-ethoxy-6-fluoro-[1,1′-biphenyl]-3-yl)-4-hydroxy-4-(trifluoromethyl)cyclohexane-1-carboxamide]
736 | Cc1noc(-c2cccc(N(CC34CCC(c5nc(C)no5)(CC3)CC4)C(=O)C3CCCCC3)c2)n1 [Example 1, N-((4-(3-methyl-1,2,4-oxadiazol-5-yl)bicyclo[2.2.2]octan-1-yl)methyl)-N-(3-(3-methyl-1,2,4-oxadiazol-5-yl)phenyl)cyclohexanecarboxamide]
211 | COC(=O)c1noc(-c2cccc(N(CC34CCC(c5nc(C6CC6)no5)(CC3)CC4)C(=O)C3CCCCC3)c2)n1 [Example 2, Methyl 5-(3-(N-((4-(3-cyclopropyl-1,2,4-oxadiazol-5-yl)bicyclo[2.2.2]octan-1-yl)methyl)cyclohexanecarboxamido)phenyl)-1,2,4-oxadiazole-3-carboxylate]
49 | CCc1noc(-c2cccc(N(CC34CCC(c5nc(C6CC6)no5)(CC3)CC4)C(=O)C3CCCCC3)c2)n1 [Example 4, N-((4-(3-cyclopropyl-1,2,4-oxadiazol-5-yl)bicyclo[2.2.2]octan-1-yl)methyl)-N-(3-(3-ethyl-1,2,4-oxadiazol-5-yl)phenyl)cyclohexanecarboxamide]
118 | COc1ncc(-c2cccc(N(CC34CCC(c5nc(C)no5)(CC3)CC4)C(=O)C3CCCCC3)c2)o1 [Example 6, N-(3-(2-methoxyoxazol-5-yl)phenyl)-N-((4-(3-methyl-1,2,4-oxadiazol-5-yl)bicyclo[2.2.2]octan-1-yl)methyl)cyclohexanecarboxamide]
142 | CCOc1ncc(-c2cccc(N(CC34CCC(c5nc(C6CC6)no5)(CC3)CC4)C(=O)C3CCC(F)(F)CC3)c2)o1 [Example 9, N-((4-(3-cyclopropyl-1,2,4-oxadiazol-5-yl)bicyclo[2.2.2]octan-1-yl)methyl)-N-(3-(2-ethoxyoxazol-5-yl)phenyl)-4,4-difluorocyclohexane-1-carboxamide]
129 | COc1cc(-c2cccc(N(CC34CCC(c5nc(C6CC6)no5)(CC3)CC4)C(=O)C3CCCCC3)c2)no1 [Example 12, N-((4-(3-cyclopropyl-1,2,4-oxadiazol-5-yl)bicyclo[2.2.2]octan-1-yl)methyl)-N-(3-(5-methoxyisoxazol-3-yl)phenyl)cyclohexanecarboxamide]
272 | O=C(C1CCC(F)(F)CC1)N(CC12CCC(c3nc(C4CC4)no3)(CC1)CC2)c1cccc(-c2nc(C3CC3)no2)c1 [Example 14, N-((4-(3-cyclopropyl-1,2,4-oxadiazol-5-yl)bicyclo[2.2.2]octan-1-yl)methyl)-N-(3-(3-cyclopropyl-1,2,4-oxadiazol-5-yl)phenyl)-4,4-difluorocyclohexane-1-carboxamide]
134 | O=C(C1CCOCC1)N(CC12CCC(c3nc(C4CC4)no3)(CC1)CC2)c1cccc(-c2nc(C3CC3)no2)c1 [Example 15, N-((4-(3-cyclopropyl-1,2,4-oxadiazol-5-yl)bicyclo[2.2.2]octan-1-yl)methyl)-N-(3-(3-cyclopropyl-1,2,4-oxadiazol-5-yl)phenyl)tetrahydro-2H-pyran-4-carboxamide]
3020 | CN1CCC(C(=O)N(CC23CCC(c4nc(C5CC5)no4)(CC2)CC3)c2cccc(-c3nc(C4CC4)no3)c2)CC1 [Example 17, N-((4-(3-cyclopropyl-1,2,4-oxadiazol-5-yl)bicyclo[2.2.2]octan-1-yl)methyl)-N-(3-(3-cyclopropyl-1,2,4-oxadiazol-5-yl)phenyl)-1-methylpiperidine-4-carboxamide]
1170 | O=C(C1CCS(=O)(=O)CC1)N(CC12CCC(c3nc(C4CC4)no3)(CC1)CC2)c1cccc(-c2nc(C3CC3)no2)c1 [Example 18, N-((4-(3-cyclopropyl-1,2,4-oxadiazol-5-yl)bicyclo[2.2.2]octan-1-yl)methyl)-N-(3-(3-cyclopropyl-1,2,4-oxadiazol-5-yl)phenyl)tetrahydro-2H-thiopyran-4-carboxamide 1,1-dioxide]
194 | CC(C)(O)c1coc(-c2cccc(N(CC34CCC(c5nc(C6CC6)no5)(CC3)CC4)C(=O)C3CCCCC3)c2)n1 [Example 21, N-((4-(3-cyclopropyl-1,2,4-oxadiazol-5-yl)bicyclo[2.2.2]octan-1-yl)methyl)-N-(3-(4-(2-hydroxypropan-2-yl)oxazol-2-yl)phenyl)cyclohexanecarboxamide]
74 | O=C(C1CCOCC1)N(CC12CCC(c3nc(C4CC4)no3)(CC1)CC2)c1cccc(-c2cnc(C3CC3)o2)c1 [Example 23, N-((4-(3-cyclopropyl-1,2,4-oxadiazol-5-yl)bicyclo[2.2.2]octan-1-yl)methyl)-N-(3-(2-cyclopropyloxazol-5-yl)phenyl)tetrahydro-2H-pyran-4-carboxamide]

Source: patent US12227496B2 (BRISTOL-MYERS SQUIBB COMPANY, priority 2019, dated 2025)
